# In patent US7229987B2, “Multicyclic compounds for use as melanin concentrating hormone antagonists in the treatment of obesity and diabetes” (Eli Lilly and Company, priority 2002, dated 2007):
# Structures can show the parent of a compound that is named as a salt.
row,SMILES,melting point [°C]
1,"c1ccc(OCCSCc2nnc(-c3ccc(OCCCN4CCCC4)cc3)o2)cc1 [Example 88, 2-(2-phenoxy-ethylsulfanylmethyl)-5-[4-(3-pyrrolidin-1-yl-propoxy)-phenyl]-[1,3,4]oxadiazole]",70
2,"CN(C)CCCNC(=O)c1ccccc1-c1nnc(CSCCOc2ccccc2)o1 [Example 65, N-(3-dimethylamino-propyl)-2-[5-(2-phenoxy-ethylsulfanylmethyl)-[1,3,4]oxadiazol-2-yl]-benzamide]",60 to 65
3,"CN(C)CCCOc1ccc(-c2nnc(CSCCOc3ccc(OC(F)(F)F)cc3)o2)cc1 [Example 274, [3-(4-{5-[2-(4-trifluoromethoxy-phenoxy)-ethylsulfanylmethyl]-[1,3,4]oxadiazol-2-yl}-phenoxy)-propyl]-dimethyl-amine]",92.5 to 93.5
4,"CN(C)CCCOc1ccc(-c2nnc(CSCCOc3ccc4ccccc4c3)o2)cc1 [Example 279, [3-(4-{5-[2-(2-naphthoxy)-ethylsulfanylmethyl]-[1,3,4]oxadiazol-2-yl}-phenoxy)-propyl]-dimethyl-amine]",97 to 98
5,"CN(C)CCNC(=O)c1cccc(-c2nnc(CSCCOc3ccccc3)o2)c1 [Example 60, N-(2-Dimethylamino-ethyl)3-[5-(2-phenoxy-ethylsulfanylmethyl)-[1,3,4]oxadiazol-2-yl]-benzamide]",64
6,"O=C1N(CCN2CCCC2)CCN1c1ccc(-c2nnc(CSCCOc3ccccc3)o2)cc1 [Example 257, 1-{4-[5-(2-phenoxy-ethylsulfanylmethyl)-[1,3,4]oxadiazol-2-yl]-phenyl}-3-(2-pyrrolidin-1-yl-ethyl)-imidazolidin-2-one]",125 to 129
7,"CN1CCCC(COc2ccc(-c3nnc(CSCCOc4ccccc4)o3)cc2)C1.O=C(O)/C=C\C(=O)O (stereo not shown) [Example 290, 1-methyl-3-{4-[5-(2-phenoxy-ethylsulfanylmethyl)-[1,3,4]oxadiazol-2-yl]-phenoxymethyl}-piperidine; maleic acid salt]",115 to 116
8,"CN(C)CCCOc1ccc(-c2nnc(CSCCOc3ccccc3)o2)cn1 [Example 288, dimethyl-(3-{5-[5-(2-phenoxy-ethylsulfanylmethyl)-[1,3,4]oxadiazol-2-yl]-pyridin-2-yloxy}-propyl)-amine]",69 to 70
9,"CCN(CC)CCCCOc1ccc(-c2nnc(CSCCOc3ccccc3)o2)cc1 [Example 93, diethyl-(4-{4-[5-(2-phenoxy-ethylsulfanylmethyl)-[1,3,4]oxadiazol-2-yl]-phenoxy}-butyl)-amine]",35 to 38
10,"c1ccc(OCCSCc2nnc(-c3ccc(OCc4cccnc4)cc3)o2)cc1 [Example 100, 3-{4-[5-(2-phenoxy-ethylsulfanylmethyl)-[1,3,4]oxadiazol-2-yl]-phenoxymethyl}-pyridine]",111 to 112
11,"CN(C)CCCCCOc1ccc(-c2nnc(CSCCOc3ccccc3)o2)cc1 [Example 69, dimethyl-(5-{4-[5-(2-phenoxy-ethylsulfanylmethyl)-[1,3,4]oxadiazol-2-yl]-phenoxy}-pentyl)-amine]",51 to 54
12,O=C(NCCN1CCCCC1)Nc1ccc(-c2cnc(CSCCOc3ccccc3)o2)cc1 [Example 252],84 to 87
13,"c1ccc(OCCSCc2nnc(-c3ccc(OCCCCN4CCCCCC4)cc3)o2)cc1 [Example 89, 1-(4-{4-[5-(2-phenoxy-ethylsulfanylmethyl)-[1,3,4]oxadiazol-2-yl]-phenoxy}-butyl)-azepane]",35 to 38
14,"N#CCCCOc1ccc(-c2nnc(CSCCOc3ccccc3)o2)cc1 [Example 264, 4-{4-[5-(2-phenoxy-ethylsulfanylmethyl)-[1,3,4]oxadiazol-2-yl]-phenoxy}-butyronitrile]",67 to 68
15,"CN(C)CCCOc1ccc(-c2nnc(CSCCCCOc3ccccc3)o2)cc1 [Example 50, dimethyl-(3-{4-[5-(4-phenoxybutylsulfanylmethyl)-[1,3,4]oxadiazol-2-yl]-phenoxy}-propyl)-amine]",69 to 73
16,"COc1cc(-c2nnc(CSCCOc3ccccc3)o2)cc(OC)c1OCCCN(C)C.O=C(O)/C=C\C(=O)O [Example 285, (3-{2,6-dimethoxy-4-[5-(2-phenoxy-ethylsulfanylmethyl)-[1,3,4]oxadiazol-2-yl]-phenoxy}-propyl)-dimethyl-amine; maleic acid salt]",103 to 104
17,"c1ccc(OCCSCc2nnc(-c3ccc(OCCCCN4CCCC4)cc3)o2)cc1 [Example 80, 2-(2-phenoxy-ethylsulfanylmethyl)-5-[4-(4-pyrrolidin-1-yl-butoxy)-phenyl]-[1,3,4]oxadiazole]",45
18,"CN(C)CCCOc1ccc(-c2nnc(CSCCOc3ccccc3)o2)cc1 [Example 67, dimethyl-(3-{4-[5-(2-phenoxy-ethylsulfanylmethyl)-[1,3,4]oxadiazol-2-yl]-phenoxy}-propyl)-amine]",70
19,"c1ccc(OCCSCc2nnc(-c3ccc(OCc4ccccn4)cc3)o2)cc1 [Example 99, 2-{4-[5-(2-phenoxy-ethylsulfanylmethyl)-[1,3,4]oxadiazol-2-yl]-phenoxymethyl}-pyridine]",115

row,SMILES,melting point [°C]
1,"CN(C)CCCCCCCOc1ccc(-c2nnc(CSCCOc3ccccc3)o2)cc1 [Example 71, dimethyl-(7-{4-[5-(2-phenoxy-ethylsulfanylmethyl)-[1,3,4]oxadiazol-2-yl]-phenoxy}-heptyl)-amine]",39 to 40
2,"CN(C)CCCCOc1ccc(-c2nnc(CSCCOc3ccccc3)o2)cc1 [Example 68, dimethyl-(4-{4-[5-(2-phenoxy-ethylsulfanylmethyl)-[1,3,4]oxadiazol-2-yl]-phenoxy}-butyl)-amine]",62 to 63
3,"CN(C)CCCOc1ccc(-c2nnc(CSCCOc3ccccc3OC(F)(F)F)o2)cc1 [Example 275, [3-(4-{5-[2-(2-trifluoromethoxy-phenoxy)-ethylsulfanylmethyl]-[1,3,4]oxadiazol-2-yl}-phenoxy)-propyl]-dimethyl-amine]",55 to 55.5
4,"c1ccc(OCCSCc2nnc(-c3ccc(OCCCN4CCOCC4)cc3)o2)cc1 [Example 87, 4-(3-{4-[5-(2-phenoxy-ethylsulfanylmethyl)-[1,3,4]oxadiazol-2-yl]-phenoxy}-propyl)-morpholine]",65
5,"CC(C)N(CCCCOc1ccc(-c2nnc(CSCCOc3ccccc3)o2)cc1)C(C)C [Example 262, diisopropyl-(4-{4-[5-(2-phenoxy-ethylsulfanylmethyl)-[1,3,4]oxadiazol-2-yl]-phenoxy}-butyl)-amine]",42 to 44
6,"NC(=O)Nc1ccc(-c2nnc(CSCCOc3ccccc3)o2)cc1 [Example 101, {4-[5-(2-phenoxy-ethylsulfanylmethyl)-[1,3,4]oxadiazol-2-yl]-phenyl}-urea]",> 220
7,"NCCCOc1ccc(-c2nnc(CSCCOc3ccccc3)o2)cc1 [Example 84, 3-{4-[5-(2-phenoxy-ethylsulfanylmethyl)-[1,3,4]oxadiazol-2-yl]-phenoxy}-propylamine]",30 to 35
8,"CN(C)CCNc1ccc(-c2nnc(CSCCOc3ccccc3)o2)cn1 [Example 258, N,N-dimethyl-M-{5-[5-(2-phenoxy-ethylsulfanylmethyl)-[1,3,4]oxadiazol-2-yl]-pyridin-2-yl}-ethane-1,2-diamine]",97 to 98
9,"CN(C)CCNC(=O)c1ccccc1-c1nnc(CSCCOc2ccccc2)o1 [Example 64, N-(2-dimethylamino-ethyl)-2-[5-(2-phenoxy-ethylsulfanylmethyl)-[1,3,4]oxadiazol-2-yl]-benzamide]",80 to 85
10,"CN(C)CCCOc1ccc(-c2nnc(CSCCOCc3ccccc3)o2)cc1 (as salt: maleate) [Example 282, (3-{4-[5-(2-phenylmethoxy-ethylsulfanylmethyl)-[1,3,4]oxadiazol-2-yl]-phenoxy}-propyl)-dimethyl-amine]",71.5 to 72
11,"CN(C)CCCCNC(=O)c1ccc(-c2nnc(CSCCOc3ccccc3)o2)cc1 [Example 55, N-(4-dimethylaminobutyl)-4-[5-(2-phenoxyethylsulfanylmethyl)-[1,3,4]oxadiazol-2-yl]-benzamide]",71 to 78
12,"CN(C)CCCNC(=O)c1ccc(-c2nnc(CSCCCCOc3ccccc3)o2)cc1 [Example 48, N-(3-dimethylaminopropyl)-4-[5-(4-phenoxybutylsulfanylmethyl)-[1,3,4]oxadiazol-2-yl]-benzamide]",87 to 93
13,"O=C(NCCN1CCCC1)Nc1ccc(-c2nnc(CSCCOc3ccccc3)o2)cc1.O=C(O)C(=O)O [Example 106, 1-{4-[5-(2-phenoxy-ethylsulfanylmethyl)-[1,3,4]oxadiazol-2-yl]-phenyl}-3-(2-pyrrolidin-1-yl-ethyl)-urea oxalate]",111 to 115
14,"CN(C)CCNC(=O)c1ccc(-c2nnc(CSCCOc3ccccc3)o2)cc1 [Example 54, N-(2-dimethylaminoethyl)-4-[5-(2-phenoxyethylsulfanylmethyl)-[1,3,4]oxadiazol-2-yl]-benzamide]",94 to 100
15,"CN(C)CCCCNC(=O)c1cccc(-c2nnc(CSCCOc3ccccc3)o2)c1 [Example 61, N-(4-dimethylamino-butyl)-3-[5-(2-phenoxy-ethylsulfanylmethyl)-[1,3,4]oxadiazol-2-yl]-benzamide]",38 to 42
16,"CN(C)CCCOc1ccc(-c2nnc(CSCCOc3ccccc3)s2)cc1 [Example 59, Dimethyl-(3-{4-[5-(2-phenoxyethylsulfanylmethyl)-[1,3,4]thiadiazol-2-yl]-phenoxy}-propyl)-amine]",72 to 73
17,"CN(C)CCOc1ccc(-c2nnc(CSCCOc3ccccc3)o2)cc1 [Example 66, dimethyl-(2-{4-[5-(2-phenoxy-ethylsulfanylmethyl)-[1,3,4]oxadiazol-2-yl]-phenoxy}-ethyl)-amine]",62 to 64
18,"CCN(CC)CCOc1ccc(-c2nnc(CSCCOc3ccccc3)o2)cc1 [Example 85, diethyl-(2-{4-[5-(2-phenoxy-ethylsulfanylmethyl)-[1,3,4]oxadiazol-2-yl]-phenoxy}-ethyl)-amine]",32 to 35
